# From patent US10273226B2, “Pyrazolyl-heteroarylamides as pesticides” (Bayer Animal Health GmbH, priority 2014, dated 2019)
# Assays:
# Type in all cases: in vivo
# Musca domestica = Musca domestica test; details: application rate 100 ppm; adult houseflies; after 2 days
# Experimental: (§1) Solvent: dimethyl sulphoxide
# (§2) To produce an appropriate active ingredient formulation, 10 mg of active ingredient are mixed with 0.5 ml of dimethyl sulphoxide, and the concentrate is diluted with water to the desired concentration.
# Vessels containing a sponge treated with sugar solution and the active ingredient formulation of the desired concentration are populated with 10 adult houseflies (Musca domestica).
# After 2 days, the kill in % is determined. 100% means that all of the flies have been killed; 0% means that none of the flies have been killed.
# Phaedon cochleariae = Phaedon cochleariae spray test; details: application rate 100 g/ha; larvae; after 7 days
# Experimental: Phaedon cochleariae—Spray Test
# (§3) To produce an appropriate active ingredient formulation, 1 part by weight of active ingredient is dissolved using the specified parts by weight of solvent and made up with water containing an emulsifier concentration of 1000 ppm until the desired concentration is attained. To produce further test concentrations, the preparation is diluted with emulsifier-containing water.
# Discs of Chinese cabbage leaves (Brassica pekinensis) are sprayed with an active ingredient formulation of the desired concentration and, after drying, populated with larvae of the mustard beetle (Phaedon cochleariae).
# After 7 days, efficacy in % is determined. 100% means that all the beetle larvae have been killed; 0% means that no beetle larvae have been killed.
# Boophilus microplus = Boophilus microplus injection test; details: application rate 20 μg/animal; injection into abdomen; assessed after 7 days
# Experimental: Boophilus microplus—Injection Test
# as §1
# To produce an appropriate active ingredient formulation, 10 mg of active ingredient are mixed with 0.5 ml of solvent and the concentrate is diluted with solvent to the desired concentration.
# 1 μl of the active ingredient solution is injected into the abdomen of 5 engorged adult female cattle ticks (Boophilus microplus). The animals are transferred into dishes and kept in a climate-controlled room.
# Efficacy is assessed after 7 days by laying of fertile eggs. Eggs which are not visibly fertile are stored in a climate-controlled cabinet until the larvae hatch after about 42 days. An efficacy of 100% means that none of the ticks has laid any fertile eggs; 0% means that all the eggs are fertile.
# Ctenocephalides felis [1] = experiment: Ctenocephalides felis oral test; details: application rate 100 ppm in citrated cattle blood; after 2 days
# Experimental: Ctenocephalides felis—Oral Test
# as §1
# For the purpose of producing an appropriate active ingredient formulation, 10 mg of active ingredient are mixed with 0.5 ml of dimethyl sulphoxide. Dilution with citrated cattle blood gives the desired concentration.
# About 20 unfed adult cat fleas (Ctenocephalides felis) are placed into a chamber which is closed at the top and bottom with gauze. A metal cylinder whose bottom end is closed with parafilm is placed onto the chamber. The cylinder contains the blood/active ingredient preparation, which can be imbibed by the fleas through the parafilm membrane.
# After 2 days, the kill in % is determined. 100% means that all of the fleas have been killed; 0% means that none of the fleas have been killed.
# Lucilia cuprina = Lucilia cuprina test; details: application rate 100 ppm; L1 larvae; after 2 days
# Experimental: as §1, §2
# About 20 L1 larvae of the Australian sheep blowfly (Lucilia cuprina) are transferred into a test vessel containing minced horsemeat and the active ingredient preparation of the desired concentration.
# After 2 days, the kill in % is determined. 100% means that all the larvae have been killed and 0% means that none of the larvae have been killed.
# Tetranychus urticae = Tetranychus urticae spray test, OP-resistant; details: application rate 100 g/ha; after 6 days
# Experimental: Tetranychus urticae—Spray Test, OP-Resistant
# as §3
# Discs of bean leaves (Phaseolus vulgaris) infested by all stages of the greenhouse red spider mite (Tetranychus urticae) are sprayed with an active ingredient formulation of the desired concentration.
# After 6 days, efficacy in % is determined. 100% means that all the spider mites have been killed; 0% means that none of the spider mites have been killed.
# Rhipicephalus sanguineus = Rhipicephalus sanguineus in vitro contact test with adult brown dog ticks; details: application rate 5 μg/cm^2 (500 g/ha); after 48 h; ticks dead or moribund
# Experimental: Rhipicephalus sanguineus—In Vitro Contact Tests with Adult Brown Dog Ticks
# (§4) For the coating of the test tubes, 9 mg of active ingredient are first dissolved in 1 ml of acetone p.a. and then diluted to the desired concentration with acetone p.a. 250 μl of the solution are distributed homogeneously on the inner walls and base of a 25 ml test tube by turning and rocking on an orbital shaker (rocking rotation at 30 rpm for 2 h). With 900 ppm active ingredient solution and internal surface 44.7 cm^2, given homogeneous distribution, an area-based dose of 5 μg/cm^2 is achieved.
# After the solvent has evaporated off, the tubes are populated with 5-10 adult dog ticks (Rhipicephalus sanguineus), sealed with a perforated plastic lid and incubated in a horizontal position in the dark at room temperature and ambient humidity. After 48 h, efficacy is determined. To this end, the ticks are knocked to the floor of the tube and incubated on a hotplate at 45-50° C. for not more than 5 min. Ticks which remain motionless on the floor or move in such an uncoordinated manner that they are unable to deliberately avoid the heat by climbing upwards are considered to be dead or moribund.
# An efficacy of 100% means that all the ticks were dead or moribund. 0% efficacy means that none of the ticks had been harmed.
# Spodoptera frugiperda = Spodoptera frugiperda spray test; details: application rate 100 g/ha; caterpillars; after 7 days
# Experimental: Spodoptera frugiperda—Spray Test
# as §3
# Leaf discs of maize (Zea mays) are sprayed with an active ingredient formulation of the desired concentration and, after drying, populated with caterpillars of the armyworm (Spodoptera frugiperda).
# After 7 days, efficacy in % is determined. 100% means that all the caterpillars have been killed; 0% means that no caterpillars have been killed.
# Ctenocephalides felis [2] = experiment: Ctenocephalides felis in vitro contact test with adult cat fleas; details: application rate 5 μg/cm^2 (500 g/ha); after 48 h; fleas dead or moribund
# Experimental: Ctenocephalides felis—In Vitro Contact Tests with Adult Cat Fleas
# as §4
# After the solvent has evaporated off, the tubes are populated with 5-10 adult cat fleas (Ctenocephalides felis), sealed with a perforated plastic lid and incubated in a horizontal position at room temperature and ambient humidity. After 48 h, efficacy is determined. To this end, the test tubes are stood upright and the fleas are knocked to the base of the tube. Fleas which remain motionless at the base or move in an uncoordinated manner are considered to be dead or moribund.
# 100% efficacy means that all the fleas were dead or moribund. 0% efficacy means that no fleas were harmed.
Structure (SMILES),efficacy (kill in %) (Musca domestica) [%],efficacy (Phaedon cochleariae) [%],efficacy (laying of fertile eggs) (Boophilus microplus) [%],efficacy (kill in %) (Ctenocephalides felis [1]) [%],efficacy (kill in %) (Lucilia cuprina) [%],efficacy (Tetranychus urticae) [%],efficacy (Rhipicephalus sanguineus) [%],efficacy (Spodoptera frugiperda) [%],efficacy (Ctenocephalides felis [2]) [%]
COC1CCC(C(=O)Nc2cc(-c3cnn(-c4c(C(F)(F)F)c(C(F)(F)C(F)(F)F)nn4C)c3)ccc2F)CC1 (mixture of isomers) [Example 1-047],80,100,100,100,100,100,–,–,–
Cn1nc(C(F)(F)C(F)(F)F)c(C(F)(F)F)c1-n1cc(-c2cccc(NC(=O)C3CC3)c2)cn1 [Example 1-002],100,100,100,100,100,–,100,83,–
Cn1nc(C(F)(F)C(F)(F)F)c(C(F)(F)F)c1-n1cc(-c2cccc(NC(=O)CC(F)(F)F)c2)cn1 [Example 1-007],100,100,100,100,100,90,100,100,–
Cn1nc(C(F)(F)C(F)(F)F)c(C(F)(F)F)c1-n1cc(-c2ccc(F)c(NC(=O)C3(Cl)CC3)c2)cn1 [Example 1-032],80,–,100,100,100,–,100,–,–
Cn1cc(C(=O)Nc2cc(-c3cnn(-c4c(C(F)(F)F)c(C(F)(F)C(F)(F)F)nn4C)c3)ccc2F)cn1 [Example 1-035],100,100,100,100,100,100,80,100,–
Cn1nc(C(F)(F)C(F)(F)F)c(C(F)(F)F)c1-n1cc(-c2ccc(F)c(NC(=O)C3CC3)c2)cn1 [Example 1-055],100,100,100,100,100,90,80,100,–
Cn1nc(C(F)(F)C(F)(F)F)c(C(F)(F)F)c1-n1cc(-c2ccc(F)c(NC(=O)c3ccccc3F)c2)cn1 [Example 1-071],80,100,100,90,100,100,–,100,–
Cn1nc(C(F)(F)C(F)(F)F)c(C(F)(F)F)c1-n1cc(-c2ccc(F)c(NC(=O)c3cccc(C#N)c3)c2)cn1 [Example 1-075],100,–,100,100,100,–,100,–,–
Cn1nc(C(F)(F)C(F)(F)F)c(C(F)(F)F)c1-n1cc(-c2ccc(F)c(NC(=O)C3CCCC3)c2)cn1 [Example 1-077],100,–,100,100,100,–,100,–,–
Cn1nc(C(F)(F)C(F)(F)F)c(C(F)(F)F)c1-n1cc(-c2ccc(F)c(NC(=O)c3ccc4c(c3)OC(F)(F)O4)c2)cn1 [Example 1-084],100,100,100,100,100,–,80,100,–
Cn1nc(C(F)(F)C(F)(F)F)c(C(F)(F)F)c1-n1cc(-c2ccc(F)c(NC(=O)c3cccnc3)c2)cn1 [Example 1-085],–,100,100,100,100,100,100,83,100
Cc1cc(C(=O)Nc2cc(-c3cnn(-c4c(C(F)(F)F)c(C(F)(F)C(F)(F)F)nn4C)c3)ccc2F)ccc1F [Example 1-091],–,100,100,100,100,100,100,100,100
COc1ccc(C(=O)Nc2cc(-c3cnn(-c4c(C(F)(F)F)c(C(F)(F)C(F)(F)F)nn4C)c3)ccc2F)cc1F [Example 1-095],–,100,100,100,100,100,100,100,100
COc1cc(C(=O)Nc2cc(-c3cnn(-c4c(C(F)(F)F)c(C(F)(F)C(F)(F)F)nn4C)c3)ccc2F)ccc1C [Example 1-097],–,100,100,100,100,100,100,100,100
Cn1nc(C(F)(F)C(F)(F)F)c(C(F)(F)F)c1-n1cc(-c2ccc(F)c(NC(=O)C(C)(C)c3cccc(Cl)c3)c2)cn1 [Example 1-119],80,–,100,–,100,–,–,–,–
Cn1nc(C(F)(F)C(F)(F)F)c(C(F)(F)F)c1-n1cc(-c2ccc(F)c(NC(=O)Cc3ccc(F)cc3Cl)c2)cn1 [Example 1-126],90,100,100,100,100,–,–,–,–
Cc1ncc(-c2cnn(-c3c(C(F)(F)F)c(C(F)(F)C(F)(F)F)nn3C)c2)cc1NC(=O)c1ccncc1 [Example 2-004],80,100,100,100,100,100,–,100,–
